Where no end group is shown, it is not given here.
Key:
[1] = amino acid hydrophobicity index; cited from earlier work
Description: Rimola et al. reported a review paper on the effect of silica surface features on the adsorption of biomolecules, such as polypeptides. […] This tendency was also obtained in our experiments as described in Fig. 2C. […] All 5 ...

pepsin = target: T1, pepsin (Sus scrofa, UniProt P00791); assay: Peptide digestive enzyme stability experiment (SGF with pepsin); type: in vitro ADME; conditions: SGF pH 1.2 with pepsin (0.32 g/100 mL), 60 min, 37 °C, RP-HPLC UV, no addition of pepsin = 100%
T1 construct: purchased WAKO, Japan 161–24482
T1 sequence (P00791 60-385): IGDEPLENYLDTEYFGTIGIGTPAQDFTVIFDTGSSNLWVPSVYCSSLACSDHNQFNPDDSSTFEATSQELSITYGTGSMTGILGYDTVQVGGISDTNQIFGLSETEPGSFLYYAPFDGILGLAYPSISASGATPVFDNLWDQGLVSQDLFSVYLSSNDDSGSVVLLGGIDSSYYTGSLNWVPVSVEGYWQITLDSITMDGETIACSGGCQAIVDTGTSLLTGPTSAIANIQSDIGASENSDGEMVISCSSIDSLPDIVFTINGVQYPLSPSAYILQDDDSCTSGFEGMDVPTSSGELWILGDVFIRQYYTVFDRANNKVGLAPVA
Experimental: Finally, we investigated whether the heat-treated silica gel used in this study protected the peptides that were adsorbed to them from pepsin degradation. We used DFELEDD with a high score value (Fig. 3D). The peptide was adsorbed to the heat-treated silica gel, incubated for 60 min in simulated gastric fluid containing pepsin, and then transferred to the pH 7.4 buffer that mimics the intestinal environment. […] In contrast, the degradation of the peptide was inhibited under the condition with silica gel and 57.1 ± 3.9% of the peptide was released. This occurred because the peptide was adsorbed to the pore surface of the heat-treated silica gel. Schlipf et al. reported EGFP (2.4 nm diameter × 4.2 nm) protection from proteolytic attack by Pepsin A (7.3 nm × 3.6 nm × 5.4 nm) by the mesoporous silica with 7.3 nm pores. […]
SGF (simulated gastric fluid) has been reported previously. […] To quantify the peptide, 250 μL of solution was injected into the HPLC.
Chromatographic analysis was performed with a HPLC system (JASCO, Japan) equipped with pump (model PU 2086 Plus), UV detector (model MD 4017), and a C18 column (d = 20 mm, L = 250 mm; SHISEIDO, Japan). […] The column was maintained at 30 °C, the flow rate was 5 mL/min, and the eluted peaks were detected by UV absorbance of 220 and 280 nm.

Peptide release rate (protection) after pepsin degradation, with heat-treated silica gel (pepsin; 0.5 mM peptide mixed with 25 mg/mL heat-treated silica gel, precipitate released in 300 μL PBS pH 7.4, mean ± SD) | Peptide release rate after pepsin degradation, without silica gel (pepsin; no silica gel, 0.5 mM peptide, then pH 7.4 PBS) | Compound | Hydrophobicity of amino acid [1]
 |  | N[C@@H](Cc1ccccc1)C(=O)O [F, Phe] | 2.8
 |  | CC[C@H](C)[C@H](N)C(=O)O [I] | 4.5
 |  | CC(C)[C@H](N)C(=O)O [V] | 4.2
57.1 ± 3.9% | < 1.0% | DFELEDD [DFELEDD] | 

Reference: publication PMC6054636, “Interaction between porous silica gel microcarriers and peptides for oral administration of functional peptides” (Scientific Reports, 2018)
